Measured values published in US20220111034A1, “VIRUS COMPOSITIONS” (priority 2019, published 2022).

Test system: JAM-A on Lec2-JAM-A cells
Assay: FD-based AFM with virus-functionalized tip on living Lec2-JAM-A cells, with glycan addition
Type: cell-based, human
Conditions: for T3SA+ adhesion events in the high force range (400 to 500 pN) / T3SA+ binding frequency after glycan injection / T3SA+ binding frequency before glycan injection: Lec2-JAM-A cells; for T3SA+ adhesion events in the high force range (400 to 500 pN): FIG. 8; for T3SA+ binding frequency after glycan injection / T3SA+ binding frequency before glycan injection: FIG. 9; for T3SA+ binding frequency before glycan injection: baseline of the same experiment
Procedure: Engineering and characterization of cell lines expressing JAM-A. Monolayers of CHO (ATCC, #CCL-61) and Lec2 (ATCC, #CRL-1736) cells were transduced with lentiviruses encoding a puromycin resistance gene and human JAM-A or a puromycin resistance gene alone. Transduced cells were selected for puromycin resistance by passaging twice in medium containing 20 μg ml^−1 puromycin. The concentration of puromycin used was the minimal concentration that yielded complete death of non-transduced CHO and Lec2 cells. Following selection for puromycin resistance, cells were further selected for cell surface expression of JAM-A using fluorescence-activated cell sorting (FACS). Cell-surface expression of JAM-A was detected using the monoclonal antibody, J10.4 (Liu et al. Human junction adhesion molecule regulates tight junction resealing in epithelia. J. Cell Sci. 2000, vol. 113, 2363-2374), and a fraction of cells with high JAM-A expression was collected and propagated using puromycin selection. In the ensuing Examples, cells transduced and selected for puromycin resistance alone will be referred to as CHO and Lec2 and those selected for puromycin resistance and JAM-A expression will be referred to as CHO-JAM-A and Lec2-JAM-A, respectively.
Correlative images were acquired on an AFM (Bioscope Catalyst and Bioscope Resolve, Bruker) operated in the PeakForce QNM mode (Nanoscope software v9.2) to conduct FD-based AFM and coupled to an inverted epifluorescence microscope (Zeiss Observer Z.1) as described (Newton et al. 2017, supra; Knoops et al. Specific Interactions Measured by AFM on Living Cells between Peroxiredoxin-5 and TLR4: Relevance for Mechanisms of Innate Immunity. Cell chemical biology 2018, vol. 25, 550-559, e553). A 40× oil objective (NA=0.95) was used. The AFM was equipped with a 150 μm piezoelectric scanner and a cell culture chamber allowing to control the temperature, the humidity and the CO2 concentration as described (Alsteens et al. 2017, supra). Overview images of cell surfaces (20-30 μm^2) were recorded at imaging forces of ˜500 pN using PFQNM-LC probes (Bruker) having tip lengths of 17 μm, tip radii of 65 nm, and opening angles of 15°. All fluorescence microscopy and FD-based AFM imaging experiments were conducted under cell culture conditions using the combined AFM and fluorescence microscopy chamber (FIG. 1a) at 37° C. in either Mem a, nucleosides or Ham's F12 culture medium, depending on the cell type. A gas mixture of synthetic air with 5% CO2 at 95% relative humidity using a gas humidifier membrane (PermSelect silicone) was infused at 0.1 L min^−1 into the microscopy chamber. The humidity was controlled using a humidity sensor (Sensirion). Cantilevers were first calibrated using the thermal noise method (Huffer & Bechhoefer. Calibration of atomic-force microscope tips. Review of Scientific Instruments 1993, vol. 64, 1868-1873), yielding values ranging from 0.095 to 0.135 N m^−1 for PFQNM-LC probes. The AFM tip was oscillated in a sinusoidal fashion at 0.25 kHz with a 750 nm amplitude in the PeakForce Tapping mode. The sample was scanned using a frequency of 0.125 Hz and 256 pixels per line (256 lines). AFM images and FD curves were analyzed using the Nanoscope analysis software (v1.7, Bruker), Origin, and ImageJ (v1.52e). Individual FD curves detecting unbinding events between the virus and cell surface were analyzed using the Nanoscope analysis and Origin software. The baseline of the retraction curve was corrected using a linear fit on the last 30% of the retraction curve. Using the force-time curve, the loading rate (slope) of each rupture event was determined (FIG. 1c). Optical images were analyzed using Zen Blue software (Zeiss) (Alsteens et al. 2017, Newton et al. 2017, Delguste et al. 2018a, Delguste et al. 2018b, all supra).
The live cell experiments were conducted in the same manner as described above by scanning a suitable field of cells, followed by adding 1 mM of the respective glycan to the culture medium. […]

Molecule	T3SA+ adhesion events in the high force range (400 to 500 pN) (1 mM glycan)	T3SA+ binding frequency after glycan injection (1 mM glycan) [%]	T3SA+ binding frequency before glycan injection [%]	T3SA+ adhesion events in the high force range after neuraminidase treatment (NA-treated cells, 1 mM glycan, FIG. 17)	increase in T3SA+ binding after glycan injection on neuraminidase-treated cells (neuraminidase 40 mUnit/mL for 1 h, then 1 mM glycan) [%]
CC(=O)N[C@H]1[C@H](O[C@H]2[C@@H](O)[C@@H](CO)O[C@@H](O[C@H]3[C@H](O)[C@@H](O)C(O)O[C@@H]3CO)[C@@H]2O)O[C@H](CO)[C@@H](O[C@@H]2O[C@H](CO)[C@H](O)[C@H](O)[C@H]2O)[C@@H]1O (mixture of isomers) [LNnT, lacto-N-neotetraose, reference compound]	no significant change	3.9	3.8	–	–
CC(=O)N[C@H]1[C@H]([C@H](O)[C@H](O)CO)OC(O)(C(=O)O)C[C@@H]1O (some centres unmarked) [Neu5Ac, N-acetylneuraminic acid]	more adhesion events in the high force range	4.9	3.9	more adhesion events in the high force range	~20
sialyl-lacto-N-tetraose a [LSTa]	more adhesion events in the high force range	4.8	3.8	–	–
